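Five compound concentrations were applied to cells in 96-well plates for 48 hours; endpoints were derived by simple linear interpolation of the resulting dose-response curve. GI50 marks 50% less growth.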 The source made the active and inactive calls. No stated cut-off is given here; in the data, active = GI50 up to about 1.1 µM and inactive = higher. Where a SMILES comes first, the peptide text is derived from it. Bridges are numbered along the chain shown (N, C = ends). The star is where a group is joined. Cbz = O=C(OCc1ccccc1)*
Tests used:
Assay in all cases: NCI anticancer screen, dose series, 48 h
XF498 = tested on: XF498
LXFL 529 = tested on: LXFL 529
M19-MEL = tested on: M19-MEL
DLD-1 = tested on: DLD-1
HOP-18 = tested on: HOP-18
DMS-273 = tested on: DMS-273
BT-549 = tested on: BT-549
MDA-N = tested on: MDA-N

SMILES	GI50 (BT-549)	GI50 (MDA-N)	further results
O=C(NN1C(=O)C(Cl)C1c1cccc(O)c1)c1ccccc1O (stereo not drawn)	–	–	GI50 (XF498): > 100 µM (inactive); GI50 (LXFL 529): > 100 µM (inactive); GI50 (M19-MEL): > 100 µM (inactive); GI50 (DLD-1): > 100 µM (inactive); GI50 (HOP-18): 24.8 µM (inactive); GI50 (DMS-273): > 100 µM (inactive)
CC12CC(=O)C3C(CCC4=CC(=O)CCC43C)C1CC=C2CC(=O)O (stereo not drawn)	> 100 µM (inactive)	> 100 µM (inactive)	–
Nc1nc(-c2cccs2)cs1	95.5 µM (inactive)	45.7 µM (inactive)	–
CCOC(=O)c1csc(NC(=O)CN2CCOCC2)n1	–	> 100 µM (inactive)	–
O=[N+]([O-])c1ccc(C2c3c(O)nc(S)nc3Oc3nc(S)nc(O)c32)cc1	> 100 µM (inactive)	> 100 µM (inactive)	–
CCN(CC)CCNC(=O)C1COc2ccc(-c3cc(=O)c4ccccc4o3)cc2O1 (stereo not drawn)	–	–	GI50 (XF498): 22.6 µM (inactive); GI50 (M19-MEL): 18.3 µM (inactive); GI50 (DLD-1): 22.9 µM (inactive); GI50 (HOP-18): 21 µM (inactive); GI50 (DMS-273): 19.4 µM (inactive)
N#Cc1c2c(c(Nc3ccc(F)cc3)n3c1nc1ccccc13)CCC2	7.19 µM (inactive)	3.47 µM (inactive)	–
COc1ccc(/C=C/C(=O)Oc2cc(O)cc(O)c2)cc1	49.8 µM (inactive)	58.5 µM (inactive)	–
CC1=C(O)C(=O)C2C(=O)C1C(C)C2c1ccc(C)cc1 (stereo not drawn)	–	–	GI50 (XF498): > 100 µM (inactive); GI50 (LXFL 529): > 100 µM (inactive); GI50 (M19-MEL): > 100 µM (inactive); GI50 (DLD-1): > 100 µM (inactive); GI50 (DMS-273): > 100 µM (inactive)
Cc1c(OCc2cccc3ccccc23)ccc2c(=O)cc(SCCN3CCOCC3)oc12	> 100 µM (inactive)	–	–
Cn1c(=O)c2c(nc(Nc3ccc(Cl)cc3)n3c(=O)n(-c4ccccc4)c(=O)n23)n(C)c1=O	> 100 µM (inactive)	> 100 µM (inactive)	–
O=[N+]([O-])c1ccc2c(c1)C1=C(CO2)Cc2ccccc2O1	28.8 µM (inactive)	17.9 µM (inactive)	–
O=C1N/C(=N/N=C/c2ccccc2)N/C1=C\c1c[nH]c2ccccc12	> 100 µM (inactive)	> 100 µM (inactive)	–
Cc1ccc2c(c1)C=CC(C#N)N2C(=O)Oc1ccccc1 (stereo not drawn)	22.8 µM (inactive)	29 µM (inactive)	–
COc1cc2c(cc1O)C(=O)O[C@@H]1CC=C3CCN(C)[C@H]3[C@H]21	> 25 µM (inactive)	> 25 µM (inactive)	–
O=C1c2ccccc2S(=O)(=O)c2c1cccc2[N+](=O)[O-]	3.45 µM (inactive)	–	–
CC(=O)NC1C(Sc2ncn(C3OC(CO)C(O)C(O)C3NC(C)=O)n2)OC(CO)C(O)C1O (stereo not drawn)	> 100 µM (inactive)	> 100 µM (inactive)	–
[O-][S+](Nc1ccccc1)c1ccc(Cl)cc1 (stereo not drawn)	32.6 µM (inactive)	> 100 µM (inactive)	–
C=C=C(C(=O)OC)[S+]([O-])c1ccccc1[N+](=O)[O-] (stereo not drawn)	–	–	GI50 (XF498): > 100 µM (inactive); GI50 (LXFL 529): > 100 µM (inactive); GI50 (M19-MEL): > 100 µM (inactive); GI50 (HOP-18): > 100 µM (inactive); GI50 (DMS-273): > 100 µM (inactive)
C=CCNC(=O)N(CCCC(NC(C)=O)C(=O)NCc1ccccc1)Cc1ccccc1 (stereo not drawn)	–	–	GI50 (XF498): > 100 µM (inactive); GI50 (LXFL 529): > 100 µM (inactive); GI50 (M19-MEL): > 100 µM (inactive); GI50 (HOP-18): > 100 µM (inactive); GI50 (DMS-273): > 100 µM (inactive)
CC(C)C1N2CCCCC2[C@@H]2c3[nH]c4ccccc4c3CCN12 (stereo partly drawn)	–	–	GI50 (XF498): > 100 µM (inactive); GI50 (LXFL 529): > 100 µM (inactive); GI50 (M19-MEL): > 100 µM (inactive); GI50 (DLD-1): > 100 µM (inactive); GI50 (HOP-18): > 100 µM (inactive); GI50 (DMS-273): > 100 µM (inactive)
CCOC(=O)/C(=C\c1cccc(C)c1)C(C)=O	10.8 µM (inactive)	12.7 µM (inactive)	–

SMILES	GI50 (BT-549)	GI50 (MDA-N)	further results
CCCCC1c2c([nH]c3ccccc23)C2C(=O)N(c3ccc(OC)cc3)C(=O)C2C1CCC (stereo not drawn)	–	3.02 µM (inactive)	–
COc1cc2c(cc1OC)C(Cl)C(c1ccc(Cl)c(Cl)c1)=C2Cl (stereo not drawn)	–	–	GI50 (XF498): < 0.01 µM (active); GI50 (LXFL 529): 5.15 µM (inactive); GI50 (M19-MEL): 9.02 µM (inactive); GI50 (HOP-18): 12.9 µM (inactive); GI50 (DMS-273): 3.86 µM (inactive)
COC(=O)/C=C(C)/C=C\COC1CCCCO1 (stereo not drawn)	> 100 µM (inactive)	> 100 µM (inactive)	–
CC(=O)OC1CC[C@@]2(C)C(=CC[C@@H]3[C@@H]2CC[C@]2(C)Nc4c(cnn4-c4ccc(F)cc4)C[C@@H]32)C1 (stereo partly drawn)	17.3 µM (inactive)	39.2 µM (inactive)	–
CNCCCNC(=S)Cn1cc(C)c(=O)[nH]c1=O	> 61.9 µM (inactive)	> 100 µM (inactive)	–
NNC(=O)c1cc([N+](=O)[O-])ccc1NC(=O)C12CC3CC(CC(C3)C1)C2	26.6 µM (inactive)	21 µM (inactive)	–
COc1ccc(C2SCC(=O)N2NC(=O)c2ccncc2)cc1F (stereo not drawn)	–	–	GI50 (XF498): > 100 µM (inactive); GI50 (LXFL 529): > 100 µM (inactive); GI50 (DLD-1): > 100 µM (inactive); GI50 (HOP-18): 7.29 µM (inactive); GI50 (DMS-273): > 100 µM (inactive)
COc1cc(/C=N\O)cc(/C=N/O)c1O	45.2 µM (inactive)	39.9 µM (inactive)	–
CO[C@@]12C[C@@H](CNC(=O)c3cc(Br)c[nH]3)O[C@@H]1NC(=O)N2	> 100 µM (inactive)	–	–
NC(=O)N/C=C1\C(=O)Oc2ccccc2C1=O	–	–	GI50 (LXFL 529): > 100 µM (inactive); GI50 (DLD-1): > 100 µM (inactive); GI50 (DMS-273): > 100 µM (inactive)
O=c1[nH]c(=O)n(COCc2ccccc2)c2ccccc12	–	83 µM (inactive)	–
Nc1c(-c2ccccc2)c2ccc([N+](=O)[O-])cc2c(=O)n1-c1cccc(C(=O)O)c1	51.9 µM (inactive)	> 100 µM (inactive)	–
O=c1[nH]nc(Cc2ccccc2)n1CCCl	> 100 µM (inactive)	> 100 µM (inactive)	–
CC1(C)[C@@H]2CC[C@@]1(C)CN(CCC[N+](C)(C)C)C2	> 100 µM (inactive)	> 100 µM (inactive)	–
S=C(Nc1ccccc1)c1ccc(CN2CCCCC2)s1	21.4 µM (inactive)	17.5 µM (inactive)	–
Nc1nc(SCc2ccc([N+](=O)[O-])cc2)nc2c1ncn2C1OC(COP(=O)(O)O)C(O)C1O (stereo not drawn)	–	–	GI50 (XF498): > 100 µM (inactive); GI50 (LXFL 529): > 100 µM (inactive); GI50 (DLD-1): > 100 µM (inactive); GI50 (DMS-273): > 100 µM (inactive)
N#Cc1c(=O)c2cc([N+](=O)[O-])ccc2n2c1[nH]c1ccccc12	9.08 µM (inactive)	15 µM (inactive)	–
CCCCCCCCC[C@@H]1C[C@@H]2CCC3C(C(=O)OC)=C(C)N=C(N1)N32 (stereo partly drawn)	10.6 µM (inactive)	–	–
CC(C)=CC1C(COC(=O)c2cc3c(cc2Cl)OCO3)C1(C)C (stereo not drawn)	33 µM (inactive)	29.5 µM (inactive)	–
O=[N+]([O-])/C(C(Cl)=C(Cl)Cl)=C1\Nc2ccc([N+](=O)[O-])cc2N1	62.2 µM (inactive)	75.3 µM (inactive)	–
CCOC(=O)/C(O)=C1\C(=O)N(C)C(=O)C1c1cccc(OC)c1 (stereo not drawn)	–	–	GI50 (XF498): > 100 µM (inactive); GI50 (M19-MEL): > 100 µM (inactive); GI50 (DLD-1): > 100 µM (inactive); GI50 (HOP-18): > 100 µM (inactive); GI50 (DMS-273): > 100 µM (inactive)
O=C1C=CC2(C=C1)C[C@H](NC(=O)C(F)(F)F)C(=O)O2	–	–	GI50 (LXFL 529): 23.7 µM (inactive); GI50 (M19-MEL): 23.6 µM (inactive); GI50 (DLD-1): 22.9 µM (inactive)

SMILES	GI50 (BT-549)	GI50 (MDA-N)	further results
CCC(=O)C(CCN1CCC(N2C(=O)C(CCC#N)c3ccccc32)CC1)(c1ccccc1)c1ccccc1 (stereo not drawn)	13.3 µM (inactive)	–	–
CCOc1ccccc1NC(=O)/C=C1\NC(=O)CS1	–	–	GI50 (XF498): > 100 µM (inactive); GI50 (LXFL 529): > 100 µM (inactive); GI50 (M19-MEL): > 100 µM (inactive); GI50 (DLD-1): > 100 µM (inactive); GI50 (HOP-18): 98.2 µM (inactive); GI50 (DMS-273): > 100 µM (inactive)
Nn1c(CNc2ccc(-c3nnc(Nc4ccc(Cl)cc4)n3N)cc2)nnc1Nc1ccc(Cl)cc1	> 100 µM (inactive)	80.7 µM (inactive)	–
c1ccc(-c2nc3ccccc3n3c(CN4CCCCC4)nnc23)cc1	80.2 µM (inactive)	> 100 µM (inactive)	–
O=C(O)C1C(=O)Oc2c(cccc2[N+](=O)[O-])C1O (stereo not drawn)	> 100 µM (inactive)	> 100 µM (inactive)	–
O=C(CSc1nc(=O)c(-c2ccccc2NC(=O)C(F)(F)F)n[nH]1)NC(=O)Nc1ccccc1	–	–	GI50 (XF498): > 100 µM (inactive); GI50 (LXFL 529): 79.6 µM (inactive); GI50 (M19-MEL): > 100 µM (inactive); GI50 (DLD-1): 18.9 µM (inactive); GI50 (DMS-273): 90.8 µM (inactive)
N#Cc1c(-c2ccc([N+](=O)[O-])cc2)cc(-c2ccc(Nc3ccnc4cc(C(F)(F)F)ccc34)cc2)nc1N	37.2 µM (inactive)	9.77 µM (inactive)	–
COC(=O)C12CCCN1CCC2	> 100 µM (inactive)	> 100 µM (inactive)	–
N#CC1CNC(N)NC1N (stereo not drawn)	> 100 µM (inactive)	> 100 µM (inactive)	–
C[P+](c1ccccc1)(c1ccc(Cl)cc1)c1ccc(Cl)cc1	21.3 µM (inactive)	–	–
S=C(NN=C1NCCCCN1)Nc1ccc(Cl)cc1	64.3 µM (inactive)	11.4 µM (inactive)	–
O=c1[nH]c(Br)nc2c(N3CCCCC3)c[nH]c12	–	–	GI50 (XF498): > 100 µM (inactive); GI50 (LXFL 529): > 100 µM (inactive); GI50 (M19-MEL): > 100 µM (inactive); GI50 (DLD-1): > 100 µM (inactive); GI50 (HOP-18): > 100 µM (inactive); GI50 (DMS-273): > 100 µM (inactive)
O=C(C/C(=N/O)C(F)(F)F)c1cccs1	> 100 µM (inactive)	> 100 µM (inactive)	–
CCc1nc(N)nc(N)c1-c1ccc([N+](=O)[O-])c(Cl)c1	14.9 µM (inactive)	–	–
COc1ccc(/N=C2/C(=N/c3ccc(OC)cc3)N(c3ccccc3)C(=S)N2N=C=C2Sc3ccccc3N2C)cc1	> 100 µM (inactive)	> 100 µM (inactive)	–
O=S(=O)(O)c1cc(/N=[N+](\[O-])c2ccc(/N=N/c3ccccc3)cc2S(=O)(=O)O)ccc1/C=C/c1ccc(/N=[N+](\[O-])c2ccc(/N=N/c3ccccc3)cc2S(=O)(=O)O)cc1S(=O)(=O)O	–	–	GI50 (XF498): > 100 µM (inactive); GI50 (M19-MEL): > 100 µM (inactive); GI50 (DLD-1): > 100 µM (inactive); GI50 (HOP-18): > 100 µM (inactive); GI50 (DMS-273): > 95.3 µM (inactive)
CC(=O)OC[C@H]1O[C@@H](O[C@H]2[C@H](OC(C)=O)C=CO[C@@H]2COC(C)=O)C(OC(C)=O)[C@H]2OC(C)(C)O[C@H]21 (stereo partly drawn)	36.6 µM (inactive)	–	–
COc1cc(-c2cc(=O)c3c(O)c(OC)c(OC)c(OC)c3o2)ccc1O	–	–	GI50 (LXFL 529): 16.6 µM (inactive); GI50 (M19-MEL): 22.8 µM (inactive); GI50 (DLD-1): 23.9 µM (inactive); GI50 (HOP-18): 32.4 µM (inactive); GI50 (DMS-273): 5.08 µM (inactive)
COC(=O)C1CCCCNC(=O)CCC(NC(=O)OCc2ccccc2)C(=O)N1 (stereo not drawn) (Cbz-Glu-Lys-OMe; lactam 1-2; configuration not given here)	–	> 100 µM (inactive)	–
c1ccc2c(Cc3c[nH]c4ccccc34)c[nH]c2c1 [ARUNDINE]	18.2 µM (inactive)	19.2 µM (inactive)	–
CCOS(C)(=O)=O [METHANESULFONIC ACID ETHYL ESTER]	> 100 µM (inactive)	> 100 µM (inactive)	–
